Source: PMC4057637, “Efficacy of novel antibacterial compounds targeting histidine kinase YycG protein” (Applied Microbiology and Biotechnology, 2014)
Converted amounts (≈) assume the structure as drawn.

Tests used:
Type in all cases: cell-based
[1] = Hemolytic activity; settings: healthy human erythrocytes, 5 % (v/v) suspension; for hemolysis at 1 h: at MIC
Procedure: The hemolytic activities of the derivatives on healthy human erythrocytes were also determined. Healthy human erythrocytes resuspended in normal saline (NS) at 5 % (v/v) were co-incubated with the derivatives at final concentrations of MIC, 4 × MIC, or 200 μM for 1 h at 37 °C in 96-well microtiter plates. The suspensions were centrifuged at 350 g for 10 min and the supernatant (100 μl) was transferred to new wells and measured at 570 nm on a spectrophotometer (Benchmark Microplate Reader; Bio-Rad, Hercules, CA, USA). The percentage of hemolysis was calculated by normalizing against the absorbance of erythrocytes treated with 1 % Triton X-100, which caused complete hemolysis; 0.1 % DMSO-treated cells were used as a control (Miyoshi et al. [1997]). The experiment was performed in quadruplicate wells and repeated independently three times.

[2] = tested on: S. epidermidis ATCC 35984 biofilms; test: Microtiter plate assay of S. epidermidis biofilms (crystal violet, MBEC); settings: 6-h-old (immature) biofilms
Procedure: The effects of the derivatives on immature (6-h-old) biofilms and mature (24-h-old) biofilms of S. epidermidis ATCC 35984 were detected by using a semiquantitative microtiter plate assay (Stepanovic et al. [2007]). An overnight culture of bacteria was inoculated 1:200 into TSB medium containing 0.25 % glucose and statically incubated in a polystyrene 96-well plate (200 μl per well) at 37 °C for 6 or 24 h. The medium containing any nonadherent bacteria was then removed, and serial dilutions of derivatives in 200 μl fresh TSB were added to the wells and incubated for another 16 h at 37 °C. The wells were then washed gently three times with phosphate buffered saline (PBS), air-dried, fixed with methanol, and stained with 2 % (w/v) crystal violet. The staining was visually assessed and scanned at 570 nm using a 96-well plate spectrophotometer (DTX880, Beckman Coulter, USA), and the minimal biofilm eradication concentration (MBEC) was measured (Ceri et al. [1999]).

[3] = tested on: S. epidermidis ATCC 12228; test: MIC, broth dilution; settings: Staphylococcus epidermidis, ATCC12228
Procedure: (§1) MICs of the derivatives for S. epidermidis and S. aureus were determined by the broth dilution method according to the National Committee for Clinical Laboratory (NCCLS) recommendations (Turnidge and Bordash [2007]). Twofold dilutions of the derivatives in tubes containing 4 ml of Mueller-Hinton broth (MH, Sigma, Germany) were made to concentrations from 200 to 0.39 μM. Overnight cultures of the bacteria were adjusted to the 0.5 McFarland standards and inoculated 1:200 into the MH broth and then incubated at 37 °C for 16–20 h. The lowest concentration inhibiting visible growth of the bacteria was recorded as minimal inhibitory concentration (MIC).

[4] = tested on: S. aureus ATCC 49230; test: MIC, broth dilution; settings: Staphylococcus aureus, ATCC49230
Procedure: as §1

[5] = tested on: S. aureus ATCC 25923; test: MIC, broth dilution; settings: Staphylococcus aureus, ATCC25923
Procedure: as §1

[6] = tested on: E. coli ATCC 25922; test: MIC, broth dilution; settings: Escherichia coli, ATCC25922, 200 μM highest concentration used
Procedure: Bacterial strains S. epidermidis ATCC 12228 (nonbiofilm forming), S. epidermidis ATCC 35984 (biofilm forming), S. aureus ATCC 49230, and S. aureus ATCC 25923 were from the American Type Culture Collection (ATCC, Manassas, USA) and were cultured in tryptic soy broth medium (TSB; Oxoid Ltd., Basingstoke, England). Ten clinical methicillin-resistant staphylococcal isolates, five MRSA isolates and five MRSE isolates, were collected from Huadong Teaching Hospital in Shanghai. Escherichia coli ATCC 25922 was grown in Luria-Bertani (LB) broth. The six compounds used in this study (H2-38, H2-39, H2-57, H2-60, H2-74, and H2-81) were screened from 56 derivatives of compound 2 in which the functional groups were modified, but the thiazolidine core structure was unchanged. The compounds were synthesized by Nanjing University of Technology. To generate the derivative compounds, halogen atoms were introduced into 4-thiazolidinone compounds that contained carboxylic acid moieties of phenoxy-acetic acid, (5-vinyl-furan-2-yl)-benzoic acid or (5-vinyl-thiophene-2-yl)-benzoic acid. The derivatives were dissolved in dimethyl sulfoxide (DMSO; Amresco, USA) to 200 mM for use as stock solutions.
as §1

[7] = tested on: mature (24-h-old) biofilms of S. epidermidis ATCC 35984; test: Bacterial viability in mature biofilms by CLSM with Live/Dead staining; settings: 4 × MIC, 16 h, SYTO9/PI
Procedure: A diluted overnight culture of the bacteria was inoculated into cell culture glass bottom dishes (WPI, USA) and incubated at 37 °C for 24 h. […] The biofilms were washed with PBS and stained with SYTO9 and propidium iodide (PI), both of which were used at a concentration of 1 μM. SYTO9-stained live cells and PI-stained cells dead in biofilms were visualized by a Leica TCS SP5 confocal laser scanning microscope with a ×63 1.4-NA oil immersion objective. Three-dimensional biofilm images were created by IMARIS 7.0.0 software (Bitplane).

CCc1ccccc1/N=C1\S/C(=C\c2ccc(OCC(=O)O)c(OC)c2)C(=O)N1c1ccccc1CC [Compound 2, {2-{4-{3-(2-ethylphenyl)-2-[(2-ethylphenyl)imino]-4-oxothiazolidin-5-ylidene}methyl}-2-methoxyphenoxy}acetic acid]
hemolysis at 1 h, 200 µM [1]: 5.24 ± 0.21% | hemolysis at 1 h [1]: 2.31 ± 0.35% | MBEC [2]: 100.0 µM | MIC [3]: 25 µM (≈ 12.9 µg/mL) | MIC [4]: 50 µM (≈ 25.8 µg/mL) | MIC [5]: 50 µM (≈ 25.8 µg/mL) | MIC [6]: > 200 µM

O=C(O)c1cccc(-c2ccc(C=C3SC(=Nc4ccc(Cl)cc4)N(c4ccc(Cl)cc4)C3=O)o2)c1 [H2-38, 3-{5-{{3-(4-chlorophenyl)-2-[(4-chlorophenyl)imino]-4-oxothiazolidin-5-ylidene}methyl}furan-2-yl}benzoic acid]
hemolysis at 1 h, 200 µM [1]: 0.28 ± 0.03% | hemolysis at 1 h [1]: 0.14 ± 0.03% | MBEC [2]: 12.5 µM | MIC [3]: 1.5 µM (≈ 0.803 µg/mL) | MIC [4]: 1.5 µM (≈ 0.803 µg/mL) | MIC [5]: 1.5 µM (≈ 0.803 µg/mL) | proportion of viable cells in mature biofilms [7]: 42.3% | MIC [6]: > 200 µM

O=C(O)c1ccc(-c2ccc(C=C3SC(=Nc4ccc(Cl)cc4)N(c4ccc(Cl)cc4)C3=O)o2)cc1 [H2-39, 4-{5-{{3-(4-chlorophenyl)-2-[(4-chlorophenyl)imino]-4-oxothiazolidin-5-ylidene}methyl}furan-2-yl}benzoic acid]
hemolysis at 1 h, 200 µM [1]: 0.41 ± 0.05% | hemolysis at 1 h [1]: 0.12 ± 0.03% | MBEC [2]: 12.5 µM | MIC [3]: 1.5 µM (≈ 0.803 µg/mL) | MIC [4]: 1.5 µM (≈ 0.803 µg/mL) | MIC [5]: 1.5 µM (≈ 0.803 µg/mL) | proportion of viable cells in mature biofilms [7]: 55.6% | MIC [6]: > 200 µM

O=C(O)c1ccc(-c2ccc(/C=C3\S/C(=N\c4ccccc4)N(c4ccc(Cl)cc4)C3=O)o2)cc1 [H2-57, 4-{5-{{3-(4-chlorophenyl)-2-[(4-phenyl)imino]-4-oxothiazolidin-5-ylidene}methyl}furan-2-yl}benzoic acid]
hemolysis at 1 h, 200 µM [1]: 0.16 ± 0.04% | hemolysis at 1 h [1]: 0.14 ± 0.03% | MBEC [2]: 12.5 µM | MIC [3]: 3.1 µM (≈ 1.55 µg/mL) | MIC [4]: 1.5 µM (≈ 0.751 µg/mL) | MIC [5]: 3.1 µM (≈ 1.55 µg/mL) | proportion of viable cells in mature biofilms [7]: 17.1% | MIC [6]: > 200 µM

O=C(O)c1ccc(-c2ccc(C=C3SC(=Nc4ccc(F)cc4)N(c4ccc(F)cc4)C3=O)s2)cc1 [H2-60, 4-{5-{{3-(4-fluorophenyl)-2-[(4-fluorophenyl)imino]-4-oxothiazolidin-5-ylidene}methyl}thiophene-2-yl}benzoic acid]
hemolysis at 1 h, 200 µM [1]: 0.84 ± 0.03% | hemolysis at 1 h [1]: 0.52 ± 0.06% | MBEC [2]: 12.5 µM | MIC [3]: 1.5 µM (≈ 0.778 µg/mL) | MIC [4]: 1.5 µM (≈ 0.778 µg/mL) | MIC [5]: 1.5 µM (≈ 0.778 µg/mL) | proportion of viable cells in mature biofilms [7]: 14% | MIC [6]: > 200 µM

O=C(O)COc1ccc(C=C2SC(=Nc3ccc(Cl)cc3)N(c3ccc(Cl)cc3)C2=O)cc1 [H2-74, 2-{4-{[3-(4-chlorophenyl)-2-[(4-chlorophenyl)imino]-4-oxothiazolidin-5-ylidene}methyl}phenoxy}acetic acid]
hemolysis at 1 h, 200 µM [1]: 0.42 ± 0.03% | hemolysis at 1 h [1]: 0.14 ± 0.03% | MBEC [2]: 50.0 µM | MIC [3]: 1.5 µM (≈ 0.749 µg/mL) | MIC [4]: 1.5 µM (≈ 0.749 µg/mL) | MIC [5]: 3.1 µM (≈ 1.55 µg/mL) | proportion of viable cells in mature biofilms [7]: 32.5% | MIC [6]: > 200 µM

O=C(O)c1ccc(-c2ccc(/C=C3\S/C(=N\c4ccccc4)N(c4ccc(F)cc4)C3=O)s2)cc1 [H2-81, 4-{5-{{3-(4-fluorophenyl)-2-[(4-phenyl)imino]-4-oxothiazolidin-5-ylidene}methyl}thiophene-2-yl}benzoic acid]
hemolysis at 1 h, 200 µM [1]: 0.1 ± 0.03% | hemolysis at 1 h [1]: 0.06 ± 0.09% | MBEC [2]: 6.3 µM | MIC [3]: 1.5 µM (≈ 0.751 µg/mL) | MIC [4]: 1.5 µM (≈ 0.751 µg/mL) | MIC [5]: 1.5 µM (≈ 0.751 µg/mL) | proportion of viable cells in mature biofilms [7]: 12.3% | MIC [6]: > 200 µM
